From US9403791B1, “Coumarin derivatives for cancer therapy” (Wellesley College, priority 2013, dated 2016)

Tests used:
[1] = tested on: pancreatic cancer cell line PANC-1; settings: within 24 hours; cited from earlier work
[2] = tested on: PANC-1 cells; experiment: In vitro cytotoxicity assay (WST-8 cell viability), nutrient deprived media; assay type: cell-based; settings: for CC50: Homo sapiens, PANC-1 cells, 24-hour incubation, WST-8 cell counting kit, nutrient deprived media (medium not restated at table), read-out: LC50 (the source's name)
Procedure: (§1) PANC-1 cells, ranging from passage numbers 30-36 and 40-45, were seeded in 96-well plates at a density of 2.5×10^4 cells per well and incubated in fresh Dulbecco's modified Eagle's medium (DMEM, Sigma Aldrich) at 37° C. and 5% CO2 for 24 hours. Cells were then washed with PBS (Sigma Aldrich) and then subjected to the addition of either DMEM or nutrient deprived media (absence of glucose, amino acid and serum). Serially diluted coumarin compounds were added to the cells followed by a 24-hour incubation at 37° C. and 5% CO2. Cell morphology was then observed under an inverted microscope. Cells were then washed with PBS, and fresh DMEM and 10% WST-8 cell counting kit solution (Dojindo Molecular Technologies) were added to each well. The cells were incubated for 3-hours at 37° C. and 5% CO2. Absorbance values were measured using a plate reader at 450 nm, and cell viability was calculated using the following equation % Cell viability=[{Abstest sample−Absblank}/{Abscontrol−Absblank}]*100. The cell viability of compounds 2, 3 and 4 is seen in FIG. 1a.
(§2) The assay detailed above was performed additional times and results were obtained. Briefly, PANC-1 cells, ranging from passage numbers 30-36 and 40-45, were seeded in 96-well plates at a density of 2.5×10^4 cells per well density and incubated in fresh Dulbecco's modified Eagle's medium (DMEM, Sigma Aldrich) at 37° C., 5% CO2 for 24 hours. Cells were then washed with PBS (Sigma Aldrich) and then subjected to the addition of either nutrient rich media (NRM) or nutrient deprived media (NDM). Serially diluted coumarin compounds (5.5% DMSO in NDM) were added to the cells followed by a 24-hour incubation at 37° C., 5% CO2. Cell morphology was then observed under an inverted microscope. Cells were then washed with PBS, and fresh DMEM and 10% WST-8 cell counting kit (Dojindo Molecular Technologies) were added for a 3-hour incubation at 37° C., 5% CO2. Absorbance values were measured with a plate reader at 450 nm, and cell viability was calculated using the equation % Cell viability=[{Abstest sample−Absblank}/{Abscontrol−Absblank}]*100. The cell viability of compounds 2, 3 and 4 (e.g., viability of cells following treatment with compounds 2, 3, or 4 was assessed) is shown in FIG. 1b, and is consistent with the results shown in FIG. 1a. LC50 values were determined and are as follows.

[3] = tested on: PANC-1 cells; experiment: In vitro cytotoxicity assay (WST-8 cell viability), nutrient rich media; assay type: cell-based
Procedure: as §1
as §2, with “Serially diluted coumarin compounds (5.5% DMSO in NDM) were added to the cells followed by a 24-hour incubation at 37° C., 5% CO2. Cell morphology was then observed under an inverted microscope. Cells were then washed with PBS, and fresh DMEM and 10% WST-8 cell counting kit (Dojindo Molecular Technologies) were added for a 3-hour incubation at 37° C., 5% CO2.” left out

[4] = tested on: PANC-1 cells; experiment: Morphological change observation under inverted microscope, nutrient-deprived conditions; assay type: cell-based; settings: 6.25 μM, 12.5 μM, and 25 μM, 24 hour incubation
Procedure: as §1, with “Cells were then washed with PBS, and fresh DMEM and 10% WST-8 cell counting kit solution (Dojindo Molecular Technologies) were added to each well. The cells were incubated for 3-hours at 37° C. and 5% CO2.” left out, “The cell viability of compounds 2, 3 and 4 is seen in FIG. 1a.” left out
The assay detailed above was performed additional times and results were obtained. […] Absorbance values were measured with a plate reader at 450 nm, and cell viability was calculated using the equation % Cell viability=[{Abstest sample−Absblank}/{Abscontrol−Absblank}]*100. The cell viability of compounds 2, 3 and 4 (e.g., viability of cells following treatment with compounds 2, 3, or 4 was assessed) is shown in FIG. 1b, and is consistent with the results shown in FIG. 1a. LC50 values were determined and are as follows.

| Compound | cytotoxicity against PANC-1 under nutrient starvation conditions [1] | CC50 [2] | cytotoxicity towards PANC-1 cells under nutrient starvation conditions [2] | cytotoxic activity when cells cultured under nutrient-rich conditions [3] | morphological changes to PANC-1 cells [4] |
| --- | --- | --- | --- | --- | --- |
| CC(C)(OC(=O)C=Cc1ccc(O)cc1)C1Cc2c(ccc3ccc(=O)oc23)O1 (centres unmarked) [Angelmarin, 11-O-(p-hydroxy-cinnamoyl) columbianetin] | exhibit cytotoxicity | – | – | – | – |
| CC(C)=CCOc1ccc2oc(=O)ccc2c1 [Compound 2, 6-((3-methylbut-2-en-1-yl)oxy)-2H-chromen-2-one] | – | > 100 µM | preferential cytotoxicity | no significant cytotoxic activity | – |
| CC(C)=CCC/C(C)=C/COc1ccc2oc(=O)ccc2c1 [Compound 3, (E)-6-((3,7-dimethylocta-2,6-dien-1-yl)oxy)-2H-chromen-2-one] | – | 12 µM | preferential cytotoxicity | no significant cytotoxic activity | – |
| CC(C)=CCC/C(C)=C/CC/C(C)=C/COc1ccc2oc(=O)ccc2c1 [Compound 4, 6-(((2E,6E)-3,7,11-trimethyldodeca-2,6,10-trien-1-yl)oxy)-2H-chromen-2-one] | – | 4 µM | preferential cytotoxicity | no significant cytotoxic activity | induced apoptosis-like morphological changes |
